In PubChem BioAssay (NCI):
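How tested: cells in 96-well plates exposed to compound for 48 hours at five concentrations. Definition used: TGI = concentration required for complete inhibition of growth.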

Experiments:
Assay in all cases: NCI tumour cell line growth inhibition, 48 h
BT-549 breast = test system: BT-549 breast
SK-MEL-5 melanoma = test system: SK-MEL-5 melanoma
MOLT-4 leukemia = test system: MOLT-4 leukemia
K-562 leukemia = test system: K-562 leukemia
UACC-257 melanoma = test system: UACC-257 melanoma
SN12C renal = test system: SN12C renal
NCI-H226 lung = test system: NCI-H226 lung
A498 renal = test system: A498 renal
HCC-2998 colon = test system: HCC-2998 colon
SK-MEL-28 melanoma = test system: SK-MEL-28 melanoma
SR leukemia = test system: SR leukemia
CCRF-CEM leukemia = test system: CCRF-CEM leukemia
HT29 colon = test system: HT29 colon
NCI-H23 lung = test system: NCI-H23 lung
A549 NSCLC = test system: A549 NSCLC
TK-10 renal = test system: TK-10 renal
OVCAR-4 ovarian = test system: OVCAR-4 ovarian
PC-3 prostate = test system: PC-3 prostate
UO-31 renal = test system: UO-31 renal
NCI-H522 lung = test system: NCI-H522 lung
EKVX NSCLC = test system: EKVX NSCLC
U251 CNS = test system: U251 CNS
LOX IMVI melanoma = test system: LOX IMVI melanoma
NCI-H460 lung = test system: NCI-H460 lung
MALME-3M melanoma = test system: MALME-3M melanoma
CAKI-1 renal = test system: CAKI-1 renal
RPMI-8226 leukemia = test system: RPMI-8226 leukemia
HS 578T breast = test system: HS 578T breast
SF-539 CNS = test system: SF-539 CNS
OVCAR-8 ovarian = test system: OVCAR-8 ovarian
MDA-MB-231 breast = test system: MDA-MB-231 breast
KM12 colon = test system: KM12 colon
MCF7 breast = test system: MCF7 breast
HCT-116 colon = test system: HCT-116 colon
SK-MEL-2 melanoma = test system: SK-MEL-2 melanoma
NCI/ADR-RES ovarian = test system: NCI/ADR-RES ovarian
M14 melanoma = test system: M14 melanoma
HL-60(TB) leukemia = test system: HL-60(TB) leukemia
SNB-19 CNS = test system: SNB-19 CNS
SF-295 CNS = test system: SF-295 CNS
786-0 renal = test system: 786-0 renal
HCT-15 colon = test system: HCT-15 colon
IGROV1 ovarian = test system: IGROV1 ovarian
UACC-62 melanoma = test system: UACC-62 melanoma
SK-OV-3 ovarian = test system: SK-OV-3 ovarian
MDA-N = test system: MDA-N
SNB-75 CNS = test system: SNB-75 CNS
ACHN renal = test system: ACHN renal
RXF 393 renal = test system: RXF 393 renal
DU-145 prostate = test system: DU-145 prostate
HOP-92 NSCLC = test system: HOP-92 NSCLC
MDA-MB-435 = test system: MDA-MB-435
SF-268 CNS = test system: SF-268 CNS
HOP-62 NSCLC = test system: HOP-62 NSCLC
SW-620 colon = test system: SW-620 colon
COLO 205 colon = test system: COLO 205 colon
OVCAR-3 ovarian = test system: OVCAR-3 ovarian
T-47D breast = test system: T-47D breast
OVCAR-5 ovarian = test system: OVCAR-5 ovarian

c1ccc2c(c1)NC1(N3CCCCC3)CCCCC21 (configuration not stated)
TGI (BT-549 breast): > 100 µM
TGI (SK-MEL-5 melanoma): > 100 µM
TGI (MOLT-4 leukemia): 85.1 µM
TGI (K-562 leukemia): > 100 µM
TGI (UACC-257 melanoma): > 100 µM
TGI (SN12C renal): > 100 µM
TGI (NCI-H226 lung): > 100 µM
TGI (A498 renal): 98 µM
TGI (HCC-2998 colon): > 100 µM
TGI (SK-MEL-28 melanoma): > 100 µM
TGI (SR leukemia): > 100 µM
TGI (CCRF-CEM leukemia): > 100 µM
TGI (HT29 colon): > 100 µM
TGI (NCI-H23 lung): > 100 µM
TGI (A549 NSCLC): > 100 µM
TGI (TK-10 renal): > 100 µM
TGI (OVCAR-4 ovarian): > 100 µM
TGI (PC-3 prostate): > 100 µM
TGI (UO-31 renal): > 100 µM
TGI (NCI-H522 lung): > 100 µM
TGI (EKVX NSCLC): > 100 µM
TGI (U251 CNS): > 100 µM
TGI (LOX IMVI melanoma): > 100 µM
TGI (NCI-H460 lung): > 100 µM
TGI (MALME-3M melanoma): > 100 µM
TGI (CAKI-1 renal): > 100 µM
TGI (RPMI-8226 leukemia): > 100 µM
TGI (HS 578T breast): > 100 µM
TGI (SF-539 CNS): > 100 µM
TGI (OVCAR-8 ovarian): > 100 µM
TGI (MDA-MB-231 breast): > 100 µM
TGI (KM12 colon): > 100 µM
TGI (MCF7 breast): > 100 µM
TGI (HCT-116 colon): > 100 µM
TGI (SK-MEL-2 melanoma): > 100 µM
TGI (NCI/ADR-RES ovarian): > 100 µM
TGI (M14 melanoma): > 100 µM
TGI (HL-60(TB) leukemia): 82.2 µM
TGI (SNB-19 CNS): > 100 µM
TGI (SF-295 CNS): > 100 µM
TGI (786-0 renal): > 100 µM
TGI (HCT-15 colon): > 100 µM
TGI (IGROV1 ovarian): > 100 µM
TGI (UACC-62 melanoma): > 100 µM
TGI (SK-OV-3 ovarian): > 100 µM
TGI (MDA-N): > 100 µM
TGI (SNB-75 CNS): > 100 µM
TGI (ACHN renal): > 100 µM
TGI (RXF 393 renal): 80.2 µM
TGI (DU-145 prostate): > 100 µM
TGI (HOP-92 NSCLC): 84 µM
TGI (MDA-MB-435): > 100 µM
TGI (SF-268 CNS): > 100 µM
TGI (HOP-62 NSCLC): > 100 µM
TGI (SW-620 colon): > 100 µM
TGI (COLO 205 colon): > 100 µM
TGI (OVCAR-3 ovarian): > 100 µM
TGI (T-47D breast): 78.1 µM
TGI (OVCAR-5 ovarian): > 100 µM

O=C(CCCl)NNC1=NCCCN1
TGI (BT-549 breast): > 100 µM
TGI (SK-MEL-5 melanoma): > 100 µM
TGI (MOLT-4 leukemia): > 100 µM
TGI (K-562 leukemia): > 100 µM
TGI (UACC-257 melanoma): > 100 µM
TGI (SN12C renal): > 100 µM
TGI (NCI-H226 lung): > 100 µM
TGI (A498 renal): > 100 µM
TGI (HCC-2998 colon): > 100 µM
TGI (SK-MEL-28 melanoma): > 100 µM
TGI (SR leukemia): > 100 µM
TGI (CCRF-CEM leukemia): > 100 µM
TGI (HT29 colon): > 100 µM
TGI (NCI-H23 lung): > 100 µM
TGI (A549 NSCLC): > 100 µM
TGI (TK-10 renal): > 100 µM
TGI (OVCAR-4 ovarian): > 100 µM
TGI (PC-3 prostate): > 100 µM
TGI (UO-31 renal): > 100 µM
TGI (NCI-H522 lung): > 100 µM
TGI (EKVX NSCLC): > 100 µM
TGI (U251 CNS): > 100 µM
TGI (LOX IMVI melanoma): > 100 µM
TGI (NCI-H460 lung): > 100 µM
TGI (MALME-3M melanoma): > 100 µM
TGI (RPMI-8226 leukemia): > 100 µM
TGI (HS 578T breast): > 100 µM
TGI (SF-539 CNS): > 100 µM
TGI (OVCAR-8 ovarian): > 100 µM
TGI (MDA-MB-231 breast): > 100 µM
TGI (KM12 colon): > 100 µM
TGI (MCF7 breast): > 100 µM
TGI (HCT-116 colon): > 100 µM
TGI (SK-MEL-2 melanoma): > 100 µM
TGI (NCI/ADR-RES ovarian): > 100 µM
TGI (M14 melanoma): > 100 µM
TGI (HL-60(TB) leukemia): > 100 µM
TGI (SNB-19 CNS): > 100 µM
TGI (SF-295 CNS): > 100 µM
TGI (786-0 renal): > 100 µM
TGI (HCT-15 colon): > 100 µM
TGI (IGROV1 ovarian): > 100 µM
TGI (UACC-62 melanoma): > 100 µM
TGI (SK-OV-3 ovarian): > 100 µM
TGI (MDA-N): > 100 µM
TGI (SNB-75 CNS): > 100 µM
TGI (ACHN renal): > 100 µM
TGI (RXF 393 renal): > 100 µM
TGI (DU-145 prostate): > 100 µM
TGI (HOP-92 NSCLC): > 100 µM
TGI (MDA-MB-435): > 100 µM
TGI (SF-268 CNS): > 100 µM
TGI (HOP-62 NSCLC): > 100 µM
TGI (SW-620 colon): > 100 µM
TGI (COLO 205 colon): > 100 µM
TGI (OVCAR-3 ovarian): > 100 µM
TGI (T-47D breast): > 100 µM
TGI (OVCAR-5 ovarian): > 100 µM
